Residues, ends and D or L forms follow the SMILES beside them.
Experiments:
[1] = Growth inhibition of human PL45 cells at 5 uM after 24 hrs by [3H]thymidine uptake assay; format: functional; details: read-out: GI
HCT-116 = assay: Growth inhibition of human HCT116 cells at 5 uM after 24 hrs by [3H]thymidine uptake assay; format: functional; details: read-out: GI

Row | SMILES | inhibition of growth at 5 µM [1] [%] | inhibition of growth at 5 µM (HCT-116) [%]
1 | CC(C)C[C@@H]1NC(=O)[C@H](Cc2ccccc2)NC(=O)[C@@H](CC(C)C)NC(=O)[C@@H](C(C)C)NC(=O)[C@@H](CC(C)C)NC(=O)[C@H](CC(C)C)NC(=O)[C@H](Cc2ccccc2)NC(=O)[C@@H](CC(C)C)NC(=O)[C@@H](C(C)C)NC(=O)[C@@H](CC(C)C)NC1=O | 21 | 17
2 | CC(C)C[C@@H]1NC(=O)[C@H](Cc2ccccc2)NC(=O)[C@@H](CC(C)C)NC(=O)[C@@H](C(C)C)NC(=O)[C@H](CC(C)C)NC(=O)[C@H](CC(C)C)NC(=O)[C@@H](Cc2ccccc2)NC(=O)[C@@H](CC(C)C)NC(=O)[C@@H](C(C)C)NC(=O)[C@H](CC(C)C)NC1=O | 7 | 0
3 | CC(C)C[C@@H]1NC(=O)[C@H](Cc2ccccc2)NC(=O)[C@@H](CC(C)C)NC(=O)[C@@H](C(C)C)NC(=O)[C@@H](CC(C)C)NC(=O)[C@H](CC(C)C)NC(=O)[C@@H](Cc2ccccc2)NC(=O)[C@@H](CC(C)C)NC(=O)[C@@H](C(C)C)NC(=O)[C@@H](CC(C)C)NC1=O | 12 | 0
4 | CC(C)C[C@@H]1NC(=O)[C@H](Cc2ccccc2)NC(=O)[C@@H](CC(C)C)NC(=O)[C@@H](C(C)C)NC(=O)[C@@H](CC(C)C)NC(=O)[C@H](CC(C)C)NC(=O)[C@@H](Cc2ccccc2)NC(=O)[C@@H](CC(C)C)NC(=O)[C@@H](C(C)C)NC(=O)[C@H](CC(C)C)NC1=O | 15 | 0
5 | CC(C)C[C@@H]1NC(=O)[C@H](Cc2ccccc2)NC(=O)[C@@H](Cc2ccccc2)NC(=O)[C@@H](C(C)C)NC(=O)[C@H](CC(C)C)NC(=O)[C@H](CC(C)C)NC(=O)[C@H](Cc2ccccc2)NC(=O)[C@@H](Cc2ccccc2)NC(=O)[C@@H](C(C)C)NC(=O)[C@H](CC(C)C)NC1=O | 13 | 16
6 | CC(C)C[C@@H]1NC(=O)[C@H](C(C)C)NC(=O)[C@@H](CC(C)C)NC(=O)[C@@H](Cc2ccccc2)NC(=O)[C@H](Cc2ccccc2)NC(=O)[C@H](CC(C)C)NC(=O)[C@H](C(C)C)NC(=O)[C@@H](CC(C)C)NC(=O)[C@@H](Cc2ccccc2)NC(=O)[C@H](Cc2ccccc2)NC1=O | 10 | 0
7 | CC(C)C[C@@H]1NC(=O)[C@H](Cc2ccccc2)NC(=O)[C@H](CC(C)C)NC(=O)[C@H](C(C)C)NC(=O)[C@@H](CC(C)C)NC(=O)[C@H](CC(C)C)NC(=O)[C@H](Cc2ccccc2)NC(=O)[C@H](CC(C)C)NC(=O)[C@H](C(C)C)NC(=O)[C@@H](CC(C)C)NC1=O | 12 | 0
8 | CC(C)C[C@@H]1NC(=O)[C@H](Cc2ccccc2)NC(=O)[C@@H](Cc2ccccc2)N(C)C(=O)[C@@H](C(C)C)NC(=O)[C@H](CC(C)C)NC(=O)[C@H](CC(C)C)NC(=O)[C@H](Cc2ccccc2)NC(=O)[C@@H](Cc2ccccc2)N(C)C(=O)[C@@H](C(C)C)NC(=O)[C@H](CC(C)C)NC1=O | 10 | 0
9 | CC(C)C[C@@H]1NC(=O)[C@H](CC(C)C)NC(=O)[C@@H](Cc2ccccc2)NC(=O)[C@H](CC(C)C)NC(=O)[C@H](C(C)C)NC(=O)[C@H](CC(C)C)NC(=O)[C@H](CC(C)C)NC(=O)[C@@H](Cc2ccccc2)NC(=O)[C@H](CC(C)C)NC(=O)[C@H](C(C)C)NC1=O | 11 | 0
10 | CC(C)C[C@@H]1NC(=O)[C@H](Cc2ccccc2)NC(=O)[C@@H](CC(C)C)NC(=O)[C@@H](C(C)C)NC(=O)[C@H](CC(C)C)NC(=O)[C@@H](CC(C)C)NC(=O)[C@H](Cc2ccccc2)NC(=O)[C@@H](CC(C)C)NC(=O)[C@@H](C(C)C)NC(=O)[C@@H](CC(C)C)NC1=O | 4 | 0
11 | CC(C)C[C@@H]1NC(=O)[C@H](CC(C)C)NC(=O)[C@@H](Cc2ccccc2)NC(=O)[C@@H](CC(C)C)NC(=O)[C@@H](C(C)C)NC(=O)[C@H](CC(C)C)NC(=O)[C@H](CC(C)C)NC(=O)[C@@H](Cc2ccccc2)NC(=O)[C@@H](CC(C)C)NC(=O)[C@@H](C(C)C)NC1=O | 10 | 0
12 | CC(C)C[C@@H]1NC(=O)[C@H](Cc2ccccc2)NC(=O)[C@@H](CC(C)C)NC(=O)[C@@H](C(C)C)NC(=O)[C@H](CC(C)C)NC(=O)[C@@H](CC(C)C)NC(=O)[C@@H](Cc2ccccc2)NC(=O)[C@@H](CC(C)C)NC(=O)[C@@H](C(C)C)NC(=O)[C@@H](CC(C)C)NC1=O | 17 | 0
13 | CC(C)C[C@@H]1NC(=O)[C@H](Cc2ccccc2)NC(=O)[C@H](CC(C)C)NC(=O)[C@@H](C(C)C)NC(=O)[C@@H](CC(C)C)NC(=O)[C@H](CC(C)C)NC(=O)[C@H](Cc2ccccc2)NC(=O)[C@H](CC(C)C)NC(=O)[C@@H](C(C)C)NC(=O)[C@@H](CC(C)C)NC1=O | 25 | 0
14 | CC(C)C[C@@H]1NC(=O)[C@H](C(C)C)NC(=O)[C@@H](CC(C)C)NC(=O)[C@@H](CC(C)C)NC(=O)[C@H](Cc2ccccc2)NC(=O)[C@H](CC(C)C)NC(=O)[C@H](C(C)C)NC(=O)[C@@H](CC(C)C)NC(=O)[C@@H](CC(C)C)NC(=O)[C@H](Cc2ccccc2)NC1=O | 48 | 0
15 | CC(C)C[C@@H]1NC(=O)[C@H](CC(C)C)NC(=O)[C@@H](Cc2ccccc2)NC(=O)[C@@H](CC(C)C)NC(=O)[C@H](C(C)C)NC(=O)[C@H](CC(C)C)NC(=O)[C@H](CC(C)C)NC(=O)[C@@H](Cc2ccccc2)NC(=O)[C@@H](CC(C)C)NC(=O)[C@H](C(C)C)NC1=O | 36 | 0
16 | CC(C)C[C@@H]1NC(=O)[C@H](Cc2ccccc2)NC(=O)[C@H](CC(C)C)NC(=O)[C@H](C(C)C)NC(=O)[C@H](CC(C)C)NC1=O (cyclo(FLLVL)) | 25 | 33
17 | CC(C)C[C@@H]1NC(=O)[C@H](Cc2ccccc2)NC(=O)[C@@H](CC(C)C)NC(=O)[C@H](C(C)C)NC(=O)[C@@H](CC(C)C)NC(=O)[C@H](CC(C)C)NC(=O)[C@H](Cc2ccccc2)NC(=O)[C@@H](CC(C)C)NC(=O)[C@H](C(C)C)NC(=O)[C@@H](CC(C)C)NC1=O | 9 | 0
18 | CC(C)C[C@@H]1NC(=O)[C@H](CC(C)C)NC(=O)[C@@H](Cc2ccccc2)NC(=O)[C@@H](CC(C)C)NC(=O)[C@@H](C(C)C)NC(=O)[C@@H](CC(C)C)NC(=O)[C@H](CC(C)C)NC(=O)[C@@H](Cc2ccccc2)NC(=O)[C@@H](CC(C)C)NC(=O)[C@@H](C(C)C)NC1=O | 8 | 0
19 | CC(C)C[C@@H]1NC(=O)[C@H](Cc2ccccc2)NC(=O)[C@H](CC(C)C)NC(=O)[C@@H](C(C)C)NC(=O)[C@H](CC(C)C)NC(=O)[C@H](CC(C)C)NC(=O)[C@H](Cc2ccccc2)NC(=O)[C@H](CC(C)C)NC(=O)[C@@H](C(C)C)NC(=O)[C@H](CC(C)C)NC1=O | 30 | 0
20 | CC(C)C[C@@H]1NC(=O)[C@@H](Cc2ccccc2)NC(=O)[C@@H](CC(C)C)NC(=O)[C@@H](C(C)C)NC(=O)[C@@H](CC(C)C)NC(=O)[C@H](CC(C)C)NC(=O)[C@@H](Cc2ccccc2)NC(=O)[C@@H](CC(C)C)NC(=O)[C@@H](C(C)C)NC(=O)[C@@H](CC(C)C)NC1=O | 79 | 40

— ChEMBL document CHEMBL1154751, “Evaluation of di-sansalvamide A derivatives: synthesis, structure-activity relationship, and mechanism of action” (J Med Chem, 2009)
